Experimental data reported in patent publication US20230330089A1, “COVID PREVENTION AND TREATMENT USING AN INTEGRIN INHIBITOR” (priority 2022, published 2023).

Tests used:
ACE2 = details: cited from earlier work
SARS-CoV-2 pseudovirus = details: cited from earlier work
[1] = tested on: VsVg positive control lentivirus; type: cell-based; details: HSAE cells pre-treated with 20 nM to 1 μM for 2 hours; 24 hour infection
TGF-β signaling = details: breast cancer cells; cited from earlier work
[2] = Phase I, solid tumors; cited from earlier work

CNS(=O)(=O)Nc1nccc(Cc2c(C)c3ccc(Oc4ncccn4)cc3oc2=O)c1F [VS-6766]
cellular expression of ACE2 (ACE2): reduce cellular expression of ACE2
pseudovirus infection of multiple human cell types (SARS-CoV-2 pseudovirus): inhibit pseudovirus infection

COc1ccc(S(=O)(=O)N[C@@H](CNc2nc(C)nc(N3CCC(c4ccc5c(n4)NCCC5)CC3)c2C)C(=O)O)cc1 [GLPG-0187]
effect on VsVg positive control infection [1]: no effect of the inhibitor was observed
effect on TGF-β signaling (TGF-β signaling): decreased TGF-β signaling
toxicity profile in patients [2]: favorable toxicity profile
